Experimental data as given in ChEMBL document CHEMBL3046389, “Synthesis and biological evaluation of novel hydroquinone dimethyl ethers as potential anticancer and antimicrobial agents” (2013).
≈ marks a conversion by molar mass, not a printed value.

Experiments:
Format in all cases: functional
OVCAR-4 = assay: Anticancer activity against Homo sapiens (human) OVCAR4 cells after 48 hr by SRB assay; settings: OVCAR-4, 48 h; for CC50: read-out: LC50 (the source's name)
SNB-75 = assay: Anticancer activity against Homo sapiens (human) SNB75 cells after 48 hr by SRB assay; settings: SNB-75, 48 h; for CC50: read-out: LC50 (the source's name)
MCF7 = assay: Anticancer activity against Homo sapiens (human) MCF7 cells after 48 hr by SRB assay; settings: MCF7, 48 h; for CC50: read-out: LC50 (the source's name)
SK-OV-3 = assay: Anticancer activity against Homo sapiens (human) SKOV3 cells after 48 hr by SRB assay; settings: SK-OV-3, 48 h
Malme-3M = assay: Growth inhibition of Homo sapiens (human) MALME-3M cells at 10 uM after 48 hr by SRB assay; settings: read-out: GI
RXF 393 = assay: Growth inhibition of Homo sapiens (human) RXF393 cells at 10 uM after 48 hr by SRB assay; settings: RXF 393, 48 h, read-out: GI
CCRF-CEM [1] = assay: Anticancer activity against Homo sapiens (human) CCRF-CEM cells after 48 hr by SRB assay; settings: for CC50: read-out: LC50 (the source's name)
HCT-15 [2] = assay: Anticancer activity against Homo sapiens (human) HCT15 cells after 48 hr by SRB assay; settings: HCT-15, 48 h; for CC50: read-out: LC50 (the source's name)
MDA-MB-468 = assay: Anticancer activity against Homo sapiens (human) MDA-MB-468 cells after 48 hr by SRB assay; settings: MDA-MB-468, 48 h; for CC50: read-out: LC50 (the source's name)
SF-268 = assay: Anticancer activity against Homo sapiens (human) SF268 cells after 48 hr by SRB assay; settings: SF-268, 48 h; for CC50: read-out: LC50 (the source's name)
TK-10 = assay: Anticancer activity against Homo sapiens (human) TK10 cells after 48 hr by SRB assay; settings: TK-10, 48 h; for CC50: read-out: LC50 (the source's name)
T47D = assay: Anticancer activity against Homo sapiens (human) T47D cells after 48 hr by SRB assay; settings: for CC50: read-out: LC50 (the source's name)
U-251 = assay: Anticancer activity against Homo sapiens (human) U251 cells after 48 hr by SRB assay; settings: U-251, 48 h; for CC50: read-out: LC50 (the source's name)
SNB-19 [3] = assay: Anticancer activity against Homo sapiens (human) SNB19 cells after 48 hr by SRB assay; settings: SNB-19, 48 h; for CC50: read-out: LC50 (the source's name)
HCC 2998 [4] = assay: Anticancer activity against Homo sapiens (human) HCC2998 cells after 48 hr by SRB assay; settings: HCC 2998, 48 h; for CC50: read-out: LC50 (the source's name)
HCC 2998 [5] = assay: Growth inhibition of Homo sapiens (human) HCC2998 cells at 10 uM after 48 hr by SRB assay; settings: HCC 2998, 48 h, read-out: GI
HCT-15 [6] = assay: Growth inhibition of Homo sapiens (human) HCT15 cells at 10 uM after 48 hr by SRB assay; settings: HCT-15, 48 h, read-out: GI
SF-539 = assay: Growth inhibition of Homo sapiens (human) SF539 cells at 10 uM after 48 hr by SRB assay; settings: SF-539, 48 h, read-out: GI
NCI-H522 = assay: Anticancer activity against Homo sapiens (human) NCI-H522 cells after 48 hr by SRB assay; settings: NCI-H522, 48 h; for CC50: read-out: LC50 (the source's name)
SNB-19 [7] = assay: Growth inhibition of Homo sapiens (human) SNB19 cells at 10 uM after 48 hr by SRB assay; settings: SNB-19, 48 h, read-out: GI
OVCAR-3 [8] = assay: Anticancer activity against Homo sapiens (human) OVCAR3 cells after 48 hr by SRB assay; settings: OVCAR-3, 48 h
SF-295 = assay: Growth inhibition of Homo sapiens (human) SF295 cells at 10 uM after 48 hr by SRB assay; settings: SF-295, 48 h, read-out: GI
PC-3 = assay: Anticancer activity against Homo sapiens (human) PC3 cells after 48 hr by SRB assay; settings: PC-3, 48 h; for CC50: read-out: LC50 (the source's name)
CCRF-CEM [9] = assay: Growth inhibition of Homo sapiens (human) CCRF-CEM cells at 10 uM after 48 hr by SRB assay; settings: read-out: GI
HCT-116 = assay: Growth inhibition of Homo sapiens (human) HCT116 cells at 10 uM after 48 hr by SRB assay; settings: HCT-116, 48 h, read-out: GI
IGROV-1 = assay: Anticancer activity against Homo sapiens (human) IGROV1 cells after 48 hr by SRB assay; settings: IGROV-1, 48 h
RPMI-8226 = assay: Anticancer activity against Homo sapiens (human) RPMI8226 cells after 48 hr by SRB assay; settings: RPMI-8226, 48 h; for CC50: read-out: LC50 (the source's name)
BT-549 = assay: Anticancer activity against Homo sapiens (human) BT549 cells after 48 hr by SRB assay; settings: BT-549, 48 h; for CC50: read-out: LC50 (the source's name)
NCI-H23 = assay: Growth inhibition of Homo sapiens (human) NCI-H23 cells at 10 uM after 48 hr by SRB assay; settings: NCI-H23, 48 h, read-out: GI
OVCAR-3 [10] = assay: Growth inhibition of Homo sapiens (human) OVCAR3 cells at 10 uM after 48 hr by SRB assay; settings: OVCAR-3, 48 h, read-out: GI
Candida albicans = assay: Antimicrobial activity against Candida albicans DSM 70014 after 48 hr by two-fold serial broth dilution method; settings: DSM 70014, 48 h
COLO 205 = assay: Anticancer activity against Homo sapiens (human) COLO205 cells after 48 hr by SRB assay; settings: COLO 205, 48 h; for CC50: read-out: LC50 (the source's name)
LOX IMVI = assay: Growth inhibition of Homo sapiens (human) LOXIMVI cells at 10 uM after 48 hr by SRB assay; settings: read-out: GI

## COc1ccc(OC)c(/C=C/c2nnc(S)n2-c2ccc(Cl)cc2)c1
OVCAR-4
  GI50: 20.6 µM
  TGI: > 100 µM
  CC50: > 100 µM
SNB-75
  GI50: 2.85 µM
  TGI: > 100 µM
  CC50: > 100 µM
MCF7
  GI50: 4.44 µM
  TGI: > 100 µM
  CC50: > 100 µM
SK-OV-3
  GI50: 9.4 µM
  LC50: > 100 µM
  TGI: > 100 µM
Malme-3M
  inhibition of growth at 10 µM: 70.2%
RXF 393
  inhibition of growth at 10 µM: 48.1%
CCRF-CEM [1]
  GI50: 4.77 µM
  TGI: > 100 µM
  CC50: > 100 µM
HCT-15 [2]
  GI50: 4.39 µM
  TGI: > 100 µM
  CC50: > 100 µM
MDA-MB-468
  GI50: 3.51 µM
  TGI: 55.4 µM
  CC50: > 100 µM
SF-268
  GI50: 17.5 µM
  TGI: > 100 µM
  CC50: > 100 µM
TK-10
  GI50: 25.8 µM
  TGI: > 100 µM
  CC50: > 100 µM
T47D
  GI50: 4.5 µM
  TGI: > 100 µM
  CC50: > 100 µM
U-251
  GI50: 6.88 µM
  TGI: > 100 µM
  CC50: > 100 µM
SNB-19 [3]
  GI50: 12.7 µM
  TGI: > 100 µM
  CC50: > 100 µM
HCC 2998 [4]
  GI50: 13.3 µM
  TGI: > 100 µM
  CC50: > 100 µM
HCC 2998 [5]
  inhibition of growth at 10 µM: 54.4%
HCT-15 [6]
  inhibition of growth at 10 µM: 58.8%
SF-539
  inhibition of growth at 10 µM: 60.5%
NCI-H522
  GI50: 4.07 µM
  TGI: > 100 µM
  CC50: > 100 µM
SNB-19 [7]
  inhibition of growth at 10 µM: 48.8%
OVCAR-3 [8]
  GI50: 3.34 µM
  LC50: > 100 µM
  TGI: 21.4 µM
SF-295
  inhibition of growth at 10 µM: 68.8%
PC-3
  GI50: 8.91 µM
  TGI: > 100 µM
  CC50: > 100 µM
CCRF-CEM [9]
  inhibition of growth at 10 µM: 39.4%
HCT-116
  inhibition of growth at 10 µM: 70.4%
IGROV-1
  GI50: 4.38 µM
  LC50 (50% lethal concentration): > 100 µM
  TGI: > 100 µM
RPMI-8226
  GI50: 5.22 µM
  TGI: > 100 µM
  CC50: > 100 µM
BT-549
  GI50: 9.38 µM
  TGI: > 100 µM
  CC50: > 100 µM
NCI-H23
  inhibition of growth at 10 µM: 51.3%
OVCAR-3 [10]
  inhibition of growth at 10 µM: 70.6%
Candida albicans
  MFC: 100 µg/mL (≈ 267 µM)
  MIC: 100 µg/mL (≈ 267 µM)
COLO 205
  GI50: 12.4 µM
  TGI: 68.4 µM
  CC50: > 100 µM

## COc1ccc(OC)c(/C=C/c2nnc(Nc3ccc(Cl)cc3)o2)c1
LOX IMVI
  inhibition of growth at 10 µM: 32.3%
OVCAR-4
  GI50: 2.44 µM
  TGI: 6.76 µM
  CC50: > 100 µM
SNB-75
  GI50: 2.26 µM
  TGI: 7.94 µM
  CC50: > 100 µM
MCF7
  GI50: 20.7 µM
  TGI: > 100 µM
  CC50: > 100 µM
SK-OV-3
  GI50: 2.79 µM
  LC50: 60.6 µM
  TGI: 7.85 µM
Malme-3M
  inhibition of growth at 10 µM: 58.5%
RXF 393
  inhibition of growth at 10 µM: 43.7%
CCRF-CEM [1]
  GI50: > 100 µM
  TGI: > 100 µM
  CC50: > 100 µM
HCT-15 [2]
  GI50: 34.1 µM
  TGI: > 100 µM
  CC50: > 100 µM
MDA-MB-468
  GI50: 16.4 µM
  TGI: > 100 µM
  CC50: > 100 µM
SF-268
  GI50: 7.6 µM
  TGI: 37.9 µM
  CC50: > 100 µM
TK-10
  GI50: 7.4 µM
  TGI: 83.2 µM
  CC50: > 100 µM
T47D
  GI50: 2.54 µM
  TGI: > 100 µM
  CC50: > 100 µM
U-251
  GI50: 3.81 µM
  TGI: 14.3 µM
  CC50: 47.6 µM
SNB-19 [3]
  GI50: 13.8 µM
  TGI: > 100 µM
  CC50: > 100 µM
HCC 2998 [4]
  GI50: > 100 µM
  TGI: > 100 µM
  CC50: > 100 µM
HCC 2998 [5]
  inhibition of growth at 10 µM: 44.6%
NCI-H522
  GI50: 7.13 µM
  TGI: 83.7 µM
  CC50: > 100 µM
OVCAR-3 [8]
  GI50: 3.55 µM
  LC50: > 100 µM
  TGI: 15.9 µM
SF-295
  inhibition of growth at 10 µM: 53.1%
PC-3
  GI50: 13.3 µM
  TGI: 76 µM
  CC50: > 100 µM
HCT-116
  inhibition of growth at 10 µM: 78.1%
IGROV-1
  GI50: 7.7 µM
  LC50 (50% lethal concentration): > 100 µM
  TGI: > 100 µM
RPMI-8226
  GI50: > 100 µM
  TGI: > 100 µM
  CC50: > 100 µM
BT-549
  TGI: > 100 µM
  CC50: > 100 µM
OVCAR-3 [10]
  inhibition of growth at 10 µM: 67.9%
Candida albicans
  MFC: 50 µg/mL (≈ 140 µM)
  MIC: 50 µg/mL (≈ 140 µM)
COLO 205
  GI50: 16.6 µM
  TGI: > 100 µM
  CC50: > 100 µM
